Experimental data reported in publication PMC3849439, “Peptides Corresponding to the Predicted Heptad Repeat 2 Domain of the Feline Coronavirus Spike Protein Are Potent Inhibitors of Viral Infection” (PLoS ONE, 2013).
“Also recorded” adds a separate entry of the source.

What was measured:
[1] = system: Feline coronavirus type II NTU156 strain; test: Combination of FP5 with human IFN-α, viral titer by plaque reduction assay; type: cell-based; settings: for Viral titer reduction, agent alone: supernatant collected after 48 h, triplicate
fcwf-4 cells = test: MTT cytotoxicity assay; settings: 72 h at 37°C, 6.25-200 μM, absorbance 570 nm, triplicate
[2] = system: Feline coronavirus type II NTU156 strain; settings: for IC50: NTU156 at MOI 0.1 preincubated with peptide 1 h, then on fcwf-4 cells 1 h, supernatant collected 48 h postinfection and titrated, CPE at 72 h, IC50 by interpolation; for Inhibition of viral titer (%): highest concentration tested 20 μM, NTU156 MOI 0.1, fcwf-4 cells, triplicate wells

Row | Compound | Viral titer reduction, combination ([1]; 20 μM FP5 with 10 to 1000 IU IFN-α, or 10 μM FP5 with 1000 IU IFN-α, NTU156 MOI 0.1, fcwf-4 cells, 48 h) | Inhibitory effect of the combination (in words) ([1]; 20 μM FP5 with 10 to 1000 IU IFN-α, or 10 μM FP5 with 1000 IU IFN-α, two-way analysis of variance P < 0.05) | Inhibitory effect of the combination (in words) ([1]; 10 units of IFN-α combined with 20 μM FP5) | Viral titer reduction, agent alone ([1]; FP5 20 μM alone, NTU156 MOI 0.1, fcwf-4 cells) | CC50 (fcwf-4 cells) | IC50 [2] | Inhibition of viral titer (%) [2] | Viral titer reduction, agent alone ([1]; IFN-α 1000 IU alone, preincubated with cells 24 h, NTU156 MOI 0.1, fcwf-4 cells)
1 | CC[C@H](C)[C@H](NC(=O)[C@H](C)NC(=O)[C@H](CC(C)C)NC(=O)[C@H](CCC(=O)O)NC(=O)[C@@H](NC(=O)[C@@H](NC(=O)[C@@H](NC(=O)[C@H](CC(N)=O)NC(=O)[C@H](Cc1c[nH]cn1)NC(=O)[C@H](CC(C)C)NC(=O)[C@H](CCCCN)NC(=O)[C@H](CCC(=O)O)NC(=O)[C@H](CO)NC(=O)[C@H](CCCNC(=N)N)NC(=O)[C@H](Cc1ccccc1)NC(=O)[C@H](CCC(=O)O)NC(=O)[C@H](CC(C)C)NC(=O)[C@H](CC(=O)O)NC(=O)[C@H](CC(=O)O)NC(=O)[C@@H](NC(=O)[C@H](CCC(=O)O)NC(=O)CNC(=O)[C@@H](NC(=O)[C@H](CC(C)C)NC(=O)[C@H](CC(N)=O)NC(=O)[C@H](CC(C)C)NC(=O)[C@H](Cc1ccc(O)cc1)NC(=O)[C@@H](NC(=O)[C@H](C)NC(=O)[C@H](CC(N)=O)NC(=O)[C@@H](N)Cc1ccccc1)[C@@H](C)O)[C@@H](C)O)[C@@H](C)CC)[C@@H](C)O)[C@@H](C)O)C(C)C)C(=O)N[C@@H](CC(C)C)C(=O)N[C@H](C(=O)N[C@@H](CC(=O)O)C(=O)N[C@@H](CC(N)=O)C(=O)N[C@H](C(=O)N[C@@H](CC(N)=O)C(=O)N[C@@H](CC(N)=O)C(=O)N[C@H](C(=O)N[C@@H](CC(C)C)C(=O)N[C@H](C(=O)N[C@@H](CC(N)=O)C(=O)N[C@@H](CC(C)C)C(=O)N[C@@H](CCC(=O)O)C(=O)N[C@@H](Cc1c[nH]c2ccccc12)C(=O)N[C@@H](CC(C)C)C(=O)N[C@@H](CC(N)=O)C(=O)N[C@@H](CCCNC(=N)N)C(=O)N[C@H](C(=O)N[C@@H](CCC(=O)O)C(=O)O)[C@@H](C)CC)C(C)C)[C@@H](C)O)[C@@H](C)CC)[C@@H](C)CC [FP5] | up to 4.08 LogPFU/ml | complete inhibitory effect; also recorded: synergetic effects | complete inhibition | 1.81 LogPFU/ml | ≧200 μM | 1330 nM |  | 
2 | CC[C@H](C)[C@H](NC(=O)[C@H](C)NC(=O)[C@H](CC(C)C)NC(=O)[C@H](CCC(=O)O)NC(=O)[C@@H](NC(=O)[C@@H](NC(=O)[C@@H](NC(=O)[C@H](CC(N)=O)NC(=O)[C@H](Cc1c[nH]cn1)NC(=O)[C@H](CC(C)C)NC(=O)[C@H](CCCCN)NC(=O)[C@H](CCC(=O)O)NC(=O)[C@H](CO)NC(=O)[C@H](CCCNC(=N)N)NC(=O)[C@H](Cc1ccccc1)NC(=O)[C@H](CCC(=O)O)NC(=O)[C@H](CC(C)C)NC(=O)[C@H](CC(=O)O)NC(=O)[C@H](CC(=O)O)NC(=O)[C@@H](NC(=O)[C@H](CCC(=O)O)NC(=O)CNC(=O)[C@@H](NC(=O)[C@H](CC(C)C)NC(=O)[C@H](CC(N)=O)NC(=O)[C@H](CC(C)C)NC(=O)[C@H](Cc1ccc(O)cc1)NC(=O)[C@@H](NC(=O)[C@H](C)NC(=O)[C@H](CC(N)=O)NC(=O)[C@@H](N)Cc1ccccc1)[C@@H](C)O)[C@@H](C)O)[C@@H](C)CC)[C@@H](C)O)[C@@H](C)O)C(C)C)C(=O)N[C@@H](CC(C)C)C(=O)N[C@H](C(=O)N[C@@H](CC(=O)O)C(=O)N[C@@H](CC(N)=O)C(=O)N[C@H](C(=O)N[C@@H](CC(N)=O)C(=O)N[C@@H](CC(N)=O)C(=O)N[C@H](C(=O)N[C@@H](CC(C)C)C(=O)N[C@H](C(=O)N[C@@H](CC(N)=O)C(=O)N[C@@H](CC(C)C)C(=O)O)C(C)C)[C@@H](C)O)[C@@H](C)CC)[C@@H](C)CC [FP4] |  |  |  |  | ≧200 μM | 1800 nM | 93% | 
3 | CC[C@H](C)[C@H](NC(=O)[C@H](CC(N)=O)NC(=O)[C@H](CC(=O)O)NC(=O)[C@@H](NC(=O)[C@H](CC(C)C)NC(=O)[C@@H](NC(=O)[C@H](C)NC(=O)[C@H](CC(C)C)NC(=O)[C@H](CCC(=O)O)NC(=O)[C@@H](NC(=O)[C@@H](NC(=O)[C@@H](NC(=O)[C@H](CC(N)=O)NC(=O)[C@H](Cc1c[nH]cn1)NC(=O)[C@H](CC(C)C)NC(=O)[C@H](CCCCN)NC(=O)[C@H](CCC(=O)O)NC(=O)[C@H](CO)NC(=O)[C@H](CCCNC(=N)N)NC(=O)[C@H](Cc1ccccc1)NC(=O)[C@H](CCC(=O)O)NC(=O)[C@H](CC(C)C)NC(=O)[C@H](CC(=O)O)NC(=O)[C@H](CC(=O)O)NC(=O)[C@@H](NC(=O)[C@H](CCC(=O)O)NC(=O)CNC(=O)[C@@H](NC(=O)[C@H](CC(C)C)NC(=O)[C@H](CC(N)=O)NC(=O)[C@H](CC(C)C)NC(=O)[C@H](Cc1ccc(O)cc1)NC(=O)[C@@H](NC(=O)[C@H](C)NC(=O)[C@H](CC(N)=O)NC(=O)[C@@H](N)Cc1ccccc1)[C@@H](C)O)[C@@H](C)O)[C@@H](C)CC)[C@@H](C)O)[C@@H](C)O)C(C)C)[C@@H](C)CC)[C@@H](C)CC)C(=O)O [FP3] |  |  |  |  | ≧200 μM | 14200 nM | 72% | 
4 | IFN-α |  |  |  |  |  |  |  | 1.46 LogPFU/ml
5 | CC[C@H](C)[C@H](NC(=O)[C@H](CCC(=O)O)NC(=O)CNC(=O)[C@@H](NC(=O)[C@H](CC(C)C)NC(=O)[C@H](CC(N)=O)NC(=O)[C@H](CC(C)C)NC(=O)[C@H](Cc1ccc(O)cc1)NC(=O)[C@@H](NC(=O)[C@H](C)NC(=O)[C@H](CC(N)=O)NC(=O)[C@@H](N)Cc1ccccc1)[C@@H](C)O)[C@@H](C)O)C(=O)N[C@@H](CC(=O)O)C(=O)N[C@@H](CC(=O)O)C(=O)N[C@@H](CC(C)C)C(=O)N[C@@H](CCC(=O)O)C(=O)N[C@@H](Cc1ccccc1)C(=O)N[C@@H](CCCNC(=N)N)C(=O)N[C@@H](CO)C(=O)N[C@@H](CCC(=O)O)C(=O)N[C@@H](CCCCN)C(=O)N[C@@H](CC(C)C)C(=O)N[C@@H](Cc1c[nH]cn1)C(=O)N[C@@H](CC(N)=O)C(=O)N[C@H](C(=O)N[C@H](C(=O)N[C@H](C(=O)N[C@@H](CCC(=O)O)C(=O)N[C@@H](CC(C)C)C(=O)O)C(C)C)[C@@H](C)O)[C@@H](C)O [FP2] |  |  |  |  | ≧200 μM |  | 29% | 
6 | CC[C@H](C)[C@H](NC(=O)[C@H](CCC(=O)O)NC(=O)CNC(=O)[C@@H](NC(=O)[C@H](CC(C)C)NC(=O)[C@H](CC(N)=O)NC(=O)[C@H](CC(C)C)NC(=O)[C@H](Cc1ccc(O)cc1)NC(=O)[C@@H](NC(=O)[C@H](C)NC(=O)[C@H](CC(N)=O)NC(=O)[C@@H](N)Cc1ccccc1)[C@@H](C)O)[C@@H](C)O)C(=O)N[C@@H](CC(=O)O)C(=O)N[C@@H](CC(=O)O)C(=O)N[C@@H](CC(C)C)C(=O)N[C@@H](CCC(=O)O)C(=O)N[C@@H](Cc1ccccc1)C(=O)N[C@@H](CCCNC(=N)N)C(=O)N[C@@H](CO)C(=O)N[C@@H](CCC(=O)O)C(=O)N[C@@H](CCCCN)C(=O)N[C@@H](CC(C)C)C(=O)O [FP1] |  |  |  |  | ≧200 μM |  | 27% | 
